From patent US20250051732A1, “KIDNEY-ON-A-CHIP COMPRISING RENAL TUBULE CULTURE PART AND INTERSTITIUM CULTURE PART” (Seoul National University Hospital, priority 2021, published 2025)

Key:
Assay type in all cases: cell-based, human
[1] = test system: normal kidney-on-a-chip (renal tubular epithelial cells (HK-2 cells), renal fibroblasts derived from normal kidney tissue, GFP-HUVEC); test: Normal kidney-on-a-chip, TGF-β stimulation: CCK8 and α-SMA immunofluorescence and blood vessels; conditions: TGF-β 5 ng/ml, 24 hours
Method: (§1) Specifically, vascular endothelial cells (GFP-HUVEC) at 2000×10^4/ml and fibrin gel at 10 mg/ml were seeded in the vascular endothelial cell region (yellow region in FIG. 12B, Gel A) of the interstitium culture part of the kidney-on-a-chip manufactured above as 1 in FIG. 12C and cultured at room temperature for 2 to 3 minutes. Next, primary human renal fibroblasts derived from a patient with renal failure at 400×10^4/ml and fibrin gel at 10 mg/ml were seeded in the renal fibroblast region (red region in FIG. 12B, Gel C) of the interstitium culture part of the kidney-on-a-chip manufactured above as 2 in FIG. 12C and cultured at room temperature for 2 to 3 minutes. Afterwards, 5 to 10 μl of the human renal tubular epithelial cell (Human Kidney-2 cell, HK-2 cell) suspension at 300×10^4/ml was seeded in the renal tubule culture part (blue region in FIG. 12B, Gel B) of the kidney-on-a-chip as 3 in FIG. 12C, tilted 90° in the desired direction (upward in this experiment), and cultured at 37° C. for 30 minutes. After culture, each region of the kidney-on-a-chip was filled with 150 μl of the same medium as that in A. of Example 2-2. The renal tubular epithelial cells, vascular endothelial cells, renal fibroblasts and the like were seeded, cultured for 3 days, then treated with TGF-β at 5 ng/ml and TGF-β at 5 ng/ml and a TGF-β inhibitor at 10 μM, respectively, and reacted for 24 hours.
The following immunofluorescence staining was performed to examine whether the kidney-on-a-chip manufactured above normally mimics a living body. Cells in each of the renal tubule culture part and interstitium culture part of the kidney-on-a-chip were fixed with 4% paraformaldehyde fixative (Biosesang, #P2031) at room temperature for 20 minutes, washed with 1×PBS, then treated with 0.2% Triton-X (Sigma, #T9284), and cultured at room temperature for 20 minutes. The cells were then treated with 3% BSA, reacted at room temperature for 40 minutes, and then washed with 1×PBS. […]

[2] = test system: renal tubular epithelial cells (HK-2 cells) in renal fibrosis-on-a-chip; test: Renal fibrosis-on-a-chip: CCK8 and α-SMA immunofluorescence in renal tubule culture part; conditions: 24 hours
Method: as §1
The following immunofluorescence staining was performed to examine whether the kidney-on-a-chip manufactured above normally mimics a living body. Cells in each of the renal tubule culture part and interstitium culture part of the kidney-on-a-chip were fixed with 4% paraformaldehyde fixative (Biosesang, #P2031) at room temperature for 20 minutes, washed with 1×PBS, then treated with 0.2% Triton-X (Sigma, #T9284), and cultured at room temperature for 20 minutes. The cells were then treated with 3% BSA, reacted at room temperature for 40 minutes, and then washed with 1×PBS. Next, the cells were treated with primary antibodies (α-SMA antibody (diluted at 1:100) for renal fibroblasts and cytokeratin 8 (CCK8) antibody (diluted at 1:200) for renal tubular epithelial cells) diluted with 1% BSA, reacted at room temperature for 2 days, and washed again with 1×PBS. After washing, the cells were treated with secondary antibodies against each marker diluted with 1% BSA at 1:100 and the antibody Hoechst diluted with 1% BSA at 1:250, reacted at room temperature for 3 hours, washed again with 1×PBS, and then photographed using a confocal microscope, and the results are illustrated in FIG. 12D. […]

[3] = test system: vascular endothelial cells (GFP-HUVEC) in interstitium culture part; test: Renal fibrosis-on-a-chip: degree of angiogenesis (length and diameter of blood vessels, ImageJ); conditions: 24 hours
Method: Through comparative analysis of an organ-on-a-chip mimicking normal kidney tissue and an organ-on-a-chip mimicking renal fibrosis, evaluation indices for screening for renal fibrosis therapeutic agents were deduced in the following manner. At this time, human-derived renal fibroblasts, vascular endothelial cells (GFP-HUVEC), and renal tubular epithelial cells were seeded in the kidney-on-a-chip (FIG. 12A) manufactured in Example 3 in the same manner as in A. of Example 3, and cultured to manufacture a kidney-on-a-chip. However, two types of renal fibroblasts of renal fibroblasts derived from normal kidney tissue (hereinafter referred to as normal kidney-on-a-chip) and renal fibroblasts derived from renal fibrosis kidney tissue (hereinafter referred to as renal fibrosis-on-a-chip) were used as the renal fibroblasts to manufacture two types of kidney-on-chips.
The two types of kidney-on-chips were divided into the control group (control in FIGS. 13A to 13D) in which each of the two types of kidney-on-chips was not treated with TGF-β and the TGF-β group (TGF β in FIGS. 13A to 13D) in which each of the two types of kidney-on-chips was treated with TGF-β unlike Example 3, and immunofluorescence staining was performed in the same manner as in B. of Example 3. At this time, the renal tubular epithelial cells in the renal tubule culture part of each kidney-on-a-chip were treated with CCK8 antibody and α-SMA antibody, respectively, their fluorescence expression was photographed using a confocal microscope (MICROSCOPE CONFOCAL LASER SCANNING ZEISS LSM 710), the mean fluorescence intensity of each image was measured using the analysis program of the confocal microscope, then the result values of CCK8 and α-SMA measured for each group were compared to the values for the control group (control) to comparatively analyze the difference in expression levels, and the results are as illustrated in FIGS. 13A to 13D.
It is more reasonable to compare the kidney-on-a-chip of Example 3 to the pathological tissue of a patient from which kidney cells were obtained rather than comparing the kidney-on-a-chip to a laboratory animal model of renal fibrosis, so the evaluation indices for screening for renal fibrosis therapeutic agents were deduced by manufacturing a kidney-on-a-chip and performing comparative analysis in the same manner as in Experimental Example 1. […] In this experiment, three types of kidney-on-chips were manufactured: the control group (control in FIGS. 15 to 20) not treated with TGF-β, the TGF-β group (TGF β in FIGS. 15 to 20) treated with TGF-β in Experimental Example 1, and a TGF-β inhibition group (TGF β inhibitor in FIGS. 15 to 20) that was treated with TGF-β at 5 ng/ml and a TGF-β inhibitor at 10 μM and reacted for 24 hours.
For the three types of kidney-on-chips of the control group, the TGF-β group, and the TGF-β inhibition group, vascular endothelial cells (GFP-HUVEC) present in the vascular endothelial cell region of the interstitium culture part were photographed using a confocal microscope (MICROSCOPE CONFOCAL LASER SCANNING ZEISS LSM 710). […] The result values measured for each of the control group, TGF-β group, and TGF-β inhibition group were compared to the values for the control group according to each index to comparatively analyze the length and diameter of thin blood vessels and the length and diameter of thick blood vessels, and the results are as illustrated in FIGS. 17 to 18.

[4] = test system: kidney injury molecule-1 (KIM-1); test: Renal fibrosis-on-a-chip: KIM-1 ELISA of culture solution; conditions: three renal fibrosis-on-chips (patients GFP >90, 60 to 90, <60), TGF-β 5 ng/ml alone or with TGF-β inhibitor 10 μM, 24 hours, FIG. 19
Method: An experiment was performed in the same manner as in Experimental Example 2, but enzyme-linked immunosorbent assay (ELISA assay) was performed to examine whether kidney injury molecule-1 (KIM-1) could be used as an evaluation index.
Specifically, renal fibroblasts obtained from each of three patients having GFP >90, GFP 60 to 90, and GFP <60 and purchased vascular endothelial cells (GFP-HUVEC) and renal tubular epithelial cells (HK-2 cells) were co-cultured in the vascular endothelial cell medium in the same manner as in Experimental Example 1 to manufacture three types of kidney-on-chips. Next, the medium was collected for each of the control group, TGF-β group, and TGF-β inhibition group of each of the three types of kidney-on-chips, the medium of each group was diluted at an appropriate ratio, and then ELISA analysis was performed according to the instructions of the KIM-1 (human) ELISA kit (Enzo Life Sciences, Inc, #ADI-900-226-0001). Afterwards, the result values for each group were measured at 450 nm using ELISA READER (SPECTRAMAX PLUS384), each measured result value was compared to the value for the control group of each of the three types of kidney-on-chips to comparatively analyze the difference in expression level of KIM-1, and the results are as illustrated in FIG. 19.

[5] = test system: vascular endothelial growth factor (VEGF); test: Renal fibrosis-on-a-chip: VEGF real-time PCR; conditions: two renal fibrosis-on-chips (patients GFP >90, 60 to 90), TGF-β 5 ng/ml alone or with TGF-β inhibitor 10 μM, 24 hours, FIG. 20
Method: An experiment was performed in the same manner as in Experimental Example 3-1, but real-time PCR was performed to examine whether the vascular endothelial growth factor (VEGF) can be used as an evaluation index.
Specifically, for each of the control group, TGF-β group, and TGF-β inhibition group of each of the two types of kidney-on-chips manufactured from a patient with GFP >90 and a patient with GFP 60 to 90 in Experimental Example 3-1, RNA was isolated from all of the renal tubular epithelial cells (HK-2 cells), fibroblasts, and vascular endothelial cells (GFP-HUVEC) co-cultured in each kidney-on-a-chip, cDNA was synthesized from this according to a method known in the art and mixed with VEGF primers and SYBER green, and the expression level of VEGF was measured using real-time PCR equipment (REAL TIME PCR SYSTEM, Applied Biosystems ViiA7). After measurement, the result values for each group measured using the equipment were compared to the values for the control group of each of the […] of kidney-on-chips to comparatively analyze the difference in expression level of VEGF, and the results are as illustrated in FIG. 20.

[6] = renal tubular epithelial cell region, vs control, FIG. 13A, 13B
[7] = renal fibrosis-on-a-chip (Experimental Example 1), renal tubular epithelial cell region, TGF-β 5 ng/ml, vs control, FIG. 13C, 13D
[8] = three renal fibrosis-on-chips (patients GFR >90, 60-90, <60), TGF-β 5 ng/ml alone or with TGF-β inhibitor 10 μM, FIG. 15, 16

transforming growth factor-β [TGF-β]
increased: expression level of α-SMA [1, 6] | number of thin blood vessels ([1]; vascular endothelial cell region of interstitium culture part) | expression level of α-SMA [2, 7] | expression level of α-SMA [2, 8] | number of thin blood vessels ([3]; renal fibrosis-on-a-chip (Experimental Example 1), vascular endothelial cell region, TGF-β 5 ng/ml) | total length of thin blood vessels (less than 50 μm) ([3]; three renal fibrosis-on-chips, TGF-β 5 ng/ml alone or with TGF-β inhibitor 10 μM, FIG. 18A) | expression level of KIM-1 in the culture solution [4] | expression level of VEGF [5]
decreased: expression level of CCK8 [1, 6] | expression level of CCK8 [2, 7] | expression level of CCK8 [2, 8] | total length of thick blood vessels (50 μm or more) ([3]; three renal fibrosis-on-chips, TGF-β 5 ng/ml alone or with TGF-β inhibitor 10 μM, FIG. 17A) | diameter of thick blood vessels ([3]; three renal fibrosis-on-chips, TGF-β 5 ng/ml alone or with TGF-β inhibitor 10 μM, FIG. 17B) | diameter of thin blood vessels ([3]; three renal fibrosis-on-chips, TGF-β 5 ng/ml alone or with TGF-β inhibitor 10 μM, FIG. 18B)
